Measurements from ChEMBL document CHEMBL1147629, “Beyond U0126. Dianion chemistry leading to the rapid synthesis of a series of potent MEK inhibitors” (Bioorg Med Chem Lett, 2004).

Columns and labels:
[1] = target: T1, Dual specificity mitogen-activated protein kinase kinase 1 (Homo sapiens, UniProt Q02750); assay: Inhibitory potency against mitogen activated protein kinase kinase 1
Target sequence in this assay (Q02750 whole entry): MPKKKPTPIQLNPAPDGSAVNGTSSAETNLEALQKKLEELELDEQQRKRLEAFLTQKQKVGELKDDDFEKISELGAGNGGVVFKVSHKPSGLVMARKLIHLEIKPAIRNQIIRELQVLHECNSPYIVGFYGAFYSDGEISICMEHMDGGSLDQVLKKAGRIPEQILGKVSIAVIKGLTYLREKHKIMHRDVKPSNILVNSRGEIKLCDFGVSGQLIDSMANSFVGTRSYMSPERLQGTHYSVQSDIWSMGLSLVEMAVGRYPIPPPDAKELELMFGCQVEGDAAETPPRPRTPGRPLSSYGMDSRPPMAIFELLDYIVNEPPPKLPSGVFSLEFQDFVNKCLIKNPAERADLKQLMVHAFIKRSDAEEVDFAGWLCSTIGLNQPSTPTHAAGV

[2] = test system: COS-7; assay: Inhibitory concentration against AP-1 transcription in COS-7 cells; settings: Chlorocebus aethiops
[3] = test system: COS-7
[4] = target: T2, Dual specificity mitogen-activated protein kinase kinase 3 (Homo sapiens, UniProt P46734); assay: Inhibitory potency against MAP kinase kinase 3 (MKK3); format: functional
T2 sequence (P46734 whole entry): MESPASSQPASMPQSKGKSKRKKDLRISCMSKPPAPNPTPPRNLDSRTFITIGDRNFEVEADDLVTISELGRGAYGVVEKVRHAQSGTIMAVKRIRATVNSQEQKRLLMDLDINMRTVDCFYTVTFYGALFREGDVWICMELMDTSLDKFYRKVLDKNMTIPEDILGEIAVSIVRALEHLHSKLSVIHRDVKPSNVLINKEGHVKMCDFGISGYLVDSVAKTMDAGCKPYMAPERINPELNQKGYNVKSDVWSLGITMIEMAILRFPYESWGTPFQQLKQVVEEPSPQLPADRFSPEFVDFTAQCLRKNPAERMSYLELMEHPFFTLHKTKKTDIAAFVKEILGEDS

[5] = test system: Mus musculus; assay: In vivo effective dose against TPA-induced ear edema in mouse upon intraperitoneal administration; format: functional; settings: ip
[6] = Inhibitory potency against Mitogen activated protein kinase kinase 4; format: functional
[7] = target: T1, Dual specificity mitogen-activated protein kinase kinase 1; assay: Inhibitory potency against mitogen activated protein kinase kinase 1 at 10 uM
Target sequence in this assay (Q02750 whole entry, looked up): as the sequence (Q02750 whole entry) above

SMILES: N#C/C(=C(/N)Sc1ccccc1N)c1cccc(C(O)c2ccc([N+](=O)[O-])cc2[N+](=O)[O-])c1 (stereo not drawn)
- IC50 [1]: 8 nM
- IC50 [2]: 300 nM

SMILES: N#CC(=C(/N)Sc1ccccc1N)/C(C#N)=C(\N)Sc1ccccc1N
- IC50 [2]: 1000 nM

SMILES: N#C/C(=C(/N)Sc1ccccc1N)c1cccc(C(O)c2ccc([N+](=O)[O-])cc2)c1 (stereo not drawn)
- IC50 [1]: 8 nM
- IC50 [2]: 300 nM

SMILES: N#C/C(=C(/N)Sc1ccccc1)c1cccc(C(O)c2ccc(C#N)cc2)c1 (stereo not drawn)
- IC50 [1]: 53 nM
- IC50 [2]: 1200 nM

SMILES: COC(=O)c1ccc(C(O)c2cccc(/C(C#N)=C(\N)Sc3ccccc3N)c2)cc1 (stereo not drawn)
- IC50 [1]: 14 nM
- IC50 [2]: 290 nM

SMILES: N#C/C(=C(/N)Sc1ccc(N)cc1)c1cccc(C(O)c2ccccc2)c1 (stereo not drawn)
- IC50 [2]: 10700 nM

SMILES: N#C/C(=C(/N)Sc1ccccc1O)c1cccc(C(O)c2cccc([N+](=O)[O-])c2)c1 (stereo not drawn)
- IC50 [1]: 25 nM
- IC50 [2]: 3220 nM

SMILES: N#C/C(=C(/N)Sc1ccccc1N)c1cccc(C(O)C2CCCCC2)c1 (stereo not drawn)
- IC50 [1]: 56 nM
- IC50 [2]: 4510 nM

SMILES: N#C/C(=C(/N)Sc1ccccc1N)c1cccc(C(O)c2ccc(C#N)cc2)c1 (stereo not drawn)
- IC50 [1]: 7 nM
- IC50 [2]: 320 nM

SMILES: C[n+]1ccc(C(O)c2cccc(/C(C#N)=C(\N)Sc3ccccc3N)c2)cc1 (stereo not drawn)
- IC50 [1]: 330 nM
- IC50 [2]: 50000 nM

SMILES: N#C/C(=C(/N)Sc1ccccc1N)c1cccc(C(O)c2cccs2)c1 (stereo not drawn)
- IC50 [1]: 17 nM
- IC50 [2]: 2220 nM

SMILES: N#C/C(=C(/N)Sc1ccccc1N)c1cccc(C(O)c2cccc(C(F)(F)F)c2)c1 (stereo not drawn)
- IC50 [1]: 53 nM
- IC50 [2]: 5700 nM

SMILES: Cc1cccc(C(O)c2cccc(/C(C#N)=C(\N)Sc3ccccc3N)c2)c1 (stereo not drawn)
- IC50 [2]: 2400 nM

SMILES: Cc1ccc(C(O)c2cccc(/C(C#N)=C(\N)Sc3ccc(N)cc3)c2)cc1 (stereo not drawn)
- IC50 [3]: Not Active

SMILES: N#C/C(=C(/N)Sc1ccccc1N)c1cccc(C(O)c2ccsc2)c1 (stereo not drawn)
- IC50 [1]: 17 nM
- IC50 [2]: 2400 nM

SMILES: N#C/C(=C(/N)Sc1ccccc1N)c1cccc(C(O)c2c(F)c(F)c(F)c(F)c2F)c1 (stereo not drawn)
- IC50 [1]: 44 nM

SMILES: N#C/C(=C(/N)Sc1ccccc1N)c1cccc(C(O)c2ccoc2)c1 (stereo not drawn)
- IC50 [2]: 7020 nM

SMILES: N#C/C(=C(/N)Sc1ccccc1N)c1cccc(C(=O)c2ccccc2)c1
- IC50 [2]: 6170 nM

SMILES: N#C/C(=C(/N)Sc1ccccc1N)c1cccc(C(O)c2cccc3ccccc23)c1 (stereo not drawn)
- IC50 [1]: 47 nM
- IC50 [2]: 2590 nM

SMILES: CC(O)c1cccc(/C(C#N)=C(\N)Sc2ccccc2N)c1 (stereo not drawn)
- IC50 [1]: 183 nM
- IC50 [2]: 66700 nM

SMILES: N#C/C(=C(/N)Sc1ccccc1N)c1cccc(C(O)c2ccc(C(F)(F)F)cc2)c1 (stereo not drawn)
- IC50 [1]: 57 nM
- IC50 [2]: 3970 nM

SMILES: N#C/C(=C(/N)Sc1ccccc1O)c1cccc(C(O)c2ccc(C#N)cc2)c1 (stereo not drawn)
- IC50 [2]: 640 nM

SMILES: CN(C(=O)c1cccc(/C(C#N)=C(\N)Sc2ccccc2N)c1)c1ccccc1
- IC50 [1]: 4010 nM

SMILES: N#C/C(=C(/N)Sc1ccccc1N)c1ccc(C(=O)c2ccccc2)cc1
- IC50 [2]: 3130 nM

SMILES: N#C/C(=C(/N)Sc1ccccc1N)c1cccc(Cc2ccccc2)c1
- IC50 [2]: 3200 nM

SMILES: CC(C)(O)c1cccc(/C(C#N)=C(\N)Sc2ccccc2N)c1
- IC50 [1]: 340 nM
- IC50 [2]: 40000 nM

SMILES: N#C/C(=C(/N)Sc1ccccc1N)c1cccc(C(O)c2ccccc2)c1 (stereo not drawn)
- IC50 [2]: 2070 nM

SMILES: N#C/C(=C(/N)Sc1ccccc1N)c1cccc(C(O)c2ccc(-c3nnn(C(c4ccccc4)(c4ccccc4)c4ccccc4)n3)cc2)c1 (stereo not drawn)
- IC50 [1]: 255 nM
- IC50 [2]: 6880 nM

SMILES: N#C/C(=C(/N)Sc1ccccc1N)c1cccc(C(O)Cc2ccccc2)c1 (stereo not drawn)
- IC50 [2]: 19900 nM

SMILES: N#C/C(=C(/N)Sc1ccc(N)cc1)c1cccc(C(O)c2ccc(C#N)cc2)c1 (stereo not drawn)
- IC50 [1]: 53 nM

SMILES: N#C/C(=C(/N)Sc1ccccc1N)c1cccc(C(O)c2cccnc2)c1 (stereo not drawn)
- IC50 [2]: 2720 nM

SMILES: N#C/C(=C(/N)Sc1ccccc1N)c1cccc(C(O)c2cccc(C#N)c2)c1 (stereo not drawn)
- IC50 [1]: 13 nM
- IC50 [2]: 1080 nM

SMILES: N#C/C(=C(/N)Sc1ccccc1N)c1cccc(C(O)c2ccncc2)c1 (stereo not drawn)
- IC50 [4]: > 1000 nM
- IC50 [2]: 1400 nM
- ED50 [5]: 5 mg/kg
- IC50 [6]: > 1000 nM

SMILES: N#C/C(=C(/N)Sc1ccccc1N)c1cccc(C(O)c2cccc([N+](=O)[O-])c2)c1 (stereo not drawn)
- IC50 [1]: 17 nM
- IC50 [2]: 1600 nM

SMILES: N#C/C(=C(/N)Sc1ccc(N)cc1)c1cccc(Cc2ccccc2)c1
- IC50 [2]: 38800 nM

SMILES: CC(O)(c1ccccc1)c1cccc(/C(C#N)=C(\N)Sc2ccccc2N)c1 (stereo not drawn)
- IC50 [3]: Not Active

SMILES: Cc1cccc(C(O)c2cccc(/C(C#N)=C(\N)Sc3ccc(N)cc3)c2)c1 (stereo not drawn)
- IC50 [3]: Not Active

SMILES: N#C/C(=C(/N)Sc1ccccc1N)c1cccc(C(O)c2ccco2)c1 (stereo not drawn)
- IC50 [2]: 12200 nM

SMILES: COc1ccccc1S/C(N)=C(\C#N)c1cccc(C(O)c2ccc(C#N)cc2)c1 (stereo not drawn)
- IC50 [3]: Not Active

SMILES: Cc1ccccc1C(O)c1cccc(/C(C#N)=C(\N)Sc2ccc(N)cc2)c1 (stereo not drawn)
- IC50 [2]: 3670 nM

SMILES: N#C/C(=C(/N)Sc1ccccc1N)c1cccc(C(O)c2ccc3ccccc3c2)c1 (stereo not drawn)
- IC50 [1]: 76 nM
- IC50 [2]: 3250 nM

SMILES: Cc1ccccc1C(O)c1cccc(/C(C#N)=C(\N)Sc2ccccc2N)c1 (stereo not drawn)
- IC50 [2]: 2690 nM

SMILES: CN(C(=O)c1cccc(/C(C#N)=C(\N)Sc2ccc(N)cc2)c1)c1ccccc1
- inhibition [7]: 45%

SMILES: N#C/C(=C(/N)Sc1ccccc1N)c1cccc(Oc2ccccc2)c1
- IC50 [2]: 3030 nM

SMILES: N#C/C(=C(/N)Sc1ccccc1N)c1cccc(C(O)c2ccccn2)c1 (stereo not drawn)
- IC50 [2]: 11800 nM

SMILES: N#C/C(=C(/N)Sc1ccccc1N)c1cccc(C(O)(c2ccccc2)c2ccccc2)c1
- IC50 [1]: 2220 nM
- IC50 [3]: Not Active

SMILES: N#CC(=C(N)Sc1ccccc1N)c1ccccc1
- IC50 [1]: 140 nM

SMILES: Cc1ccc(C(O)c2cccc(/C(C#N)=C(\N)Sc3ccccc3N)c2)cc1 (stereo not drawn)
- IC50 [2]: 3000 nM

SMILES: N#C/C(=C(/N)Sc1ccccc1N)c1cccc(C(O)c2ccc3c(c2)OCCO3)c1 (stereo not drawn)
- IC50 [1]: 25 nM
- IC50 [2]: 2100 nM
